The values below come from ChEMBL document CHEMBL5131412, “Synthesis of unnatural morphinan compounds to induce itch-like behaviors in mice: Towards the development of MRGPRX2 selective ligands” (Bioorg Med Chem Lett, 2022).

Activity calls are given as the source filed them. No cut-off for these calls is given here. Bridge positions count the residues as written; N and C are the ends. Peptide text beside a SMILES is read from it.

Assay [1] has as its target T1, Mas-related G-protein coupled receptor member X2 (Homo sapiens) (UniProt Q96LB1).
T1 sequence (whole entry): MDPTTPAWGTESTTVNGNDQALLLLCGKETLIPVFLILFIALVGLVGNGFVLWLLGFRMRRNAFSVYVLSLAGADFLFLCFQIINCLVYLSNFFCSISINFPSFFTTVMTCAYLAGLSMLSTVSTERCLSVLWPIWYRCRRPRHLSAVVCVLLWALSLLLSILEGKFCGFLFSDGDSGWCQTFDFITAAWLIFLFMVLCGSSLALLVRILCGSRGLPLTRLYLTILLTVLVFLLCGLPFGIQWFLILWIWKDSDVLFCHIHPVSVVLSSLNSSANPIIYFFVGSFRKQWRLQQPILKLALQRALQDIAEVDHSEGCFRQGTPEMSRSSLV
Kind of assay: Agonist activity at MRGPRX2 (unknown origin) expressed in HEK293 cells assessed as induction of G(o) dissociation by measuring luminescent decay at 10 uM by NanoBiT-G-protein dissociation assay. The class given is functional, cell-based. To be noted: filed as agonist.

Assay [2] has as its target T2, Mas-related G-protein coupled receptor member B2 (Mus musculus) (UniProt Q3KNA1).
T2 sequence (whole entry): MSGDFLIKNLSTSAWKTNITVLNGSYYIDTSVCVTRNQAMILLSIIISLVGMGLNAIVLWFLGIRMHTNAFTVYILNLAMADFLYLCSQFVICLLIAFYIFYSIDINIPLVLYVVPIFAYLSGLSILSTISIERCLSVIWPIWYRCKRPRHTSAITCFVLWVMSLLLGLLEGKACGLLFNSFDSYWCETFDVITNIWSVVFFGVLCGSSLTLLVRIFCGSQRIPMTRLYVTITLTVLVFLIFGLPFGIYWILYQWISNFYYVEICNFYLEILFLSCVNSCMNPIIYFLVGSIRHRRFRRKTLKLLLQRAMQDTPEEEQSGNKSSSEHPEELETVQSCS
The assay can be described thus: Agonist activity at mouse Mrgprb2 expressed in HEK293 cells assessed as induction of G(o) dissociation by measuring luminescent decay at 10 uM by NanoBiT-G-protein dissociation assay. Format: cell-based. To be noted: filed as agonist.

Assay [3] deals with T3, Mas-related G-protein coupled receptor member X2 (Homo sapiens, UniProt Q96LB1).
T3 sequence (Q96LB1 whole entry): T1 sequence (whole entry)
The assay can be described thus: Agonistic activity at MRGPRX2 (unknown origin).

Assay [4] concerns the target T1, Mas-related G-protein coupled receptor member X2 (Homo sapiens). Kind of assay: Agonist activity at MRGPRX2 (unknown origin) expressed in HEK293 cells assessed as induction of G(o) dissociation by measuring luminescent decay at 32 uM by NanoBiT-G-protein dissociation assay. Format: functional, cell-based. Particulars: filed as agonist.
The target of assay [5] is T2, Mas-related G-protein coupled receptor member B2 (Mus musculus). The assay can be described thus: Agonist activity at mouse Mrgprb2 expressed in HEK293 cells assessed as induction of G(o) dissociation by measuring luminescent decay at 32 uM by NanoBiT-G-protein dissociation assay. The class given is cell-based. To be noted: filed as agonist.
For assay [6], the species on record is Mus musculus. The assay can be described thus: Increase in number of nociceptive behaviors in mouse at 3 to 30 ug, it. The class given is functional. To be noted: dose 3-30 µg, DDE = dose-dependent effect.
The species named for assay [7] is Mus musculus. The assay can be described thus: Increase in number of nociceptive behaviors in mouse at 30 ug, it. Format: functional. To be noted: dose 30.0 µg.
Assay [8] is filed under the species Mus musculus. Kind of assay: Increase in number of scratching behaviors in mouse at 3 to 300 ug, id. The class given is functional. Particulars: dose 3-300 µg, DDE = dose-dependent effect.

For orientation: EC50 means the concentration that produces a half-maximal response. Read a low EC50 as an effect from little substance.

As to `C[C@@H](O)[C@@H]1NC(=O)[C@H](CCCCN)NC(=O)[C@H](Cc2c[nH]c3ccccc23)NC(=O)[C@H](Cc2ccccc2)NC(=O)[C@H](Cc2ccccc2)NC(=O)[C@H](CC(N)=O)NC(=O)[C@H](CCCCN)NC(=O)[C@@H](NC(=O)[C@@H]2CCCN2)CSSC[C@@H](C(=O)N[C@@H](CCCCN)C(=O)O)NC(=O)[C@H](CO)NC(=O)[C@H](CO)NC(=O)[C@H](Cc2ccccc2)NC1=O` (H-PCKNFFWKTFSSCK-OH; disulfide 2-13), the result in assay [1] and in assay [2] was Active.

In assay [3], `CN1CC[C@]2(c3cccc(O)c3)Cc3nc4ccccc4cc3C[C@@H]2C1` displayed an EC50 of 290 nM. Also, the result in assay [4] and in assay [5] was Active.

On to `CN1CC[C@]23Cc4nc5ccccc5cc4C[C@@]2(O)[C@H]1Cc1ccc(O)cc13`, for which the outcome (in assay [4]; in assay [5]; in the assay listed under Mus musculus [7]) was Active. The Activity entry in the assay filed under Mus musculus [6] and in the assay listed under Mus musculus [8] was “Dde” throughout.
